Laboratory results reported in ChEMBL document CHEMBL1201861, “Genomics of Drug Sensitity in Cancer screening data, Wellcome Trust Sanger Institute”.

Experiments:
Assay in all cases: cells
Conditions in all cases: Homo sapiens
[1] = tested on: MV4-11; type: functional, cell-based, MV-4-11;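 also: cell viability readout measuring growth inhibition of human MV-4-11 cells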
Description: SANGER: Inhibition of human MV-4-11 cell growth in a cell viability assay.

[2] = tested on: MOLT-4; type: functional, cell-based;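 also: growth inhibition of MOLT-4 cells, determined with a cell viability readout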
Description: SANGER: Inhibition of human MOLT-4 cell growth in a cell viability assay.

[3] = tested on: ONS-76; type: functional, cell-based;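 also: growth inhibition of human ONS-76 cells, read out with a cell viability assay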
Description: SANGER: Inhibition of human ONS-76 cell growth in a cell viability assay.

[4] = tested on: RPMI-8866; type: functional, cell-based
Description: SANGER: Inhibition of human RPMI-8866 cell growth in a cell viability assay.

[5] = tested on: KM12; type: functional, cell-based;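 also: KM12 cell growth inhibition, read out with a cell viability assay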
Description: SANGER: Inhibition of human KM12 cell growth in a cell viability assay.

[6] = tested on: K5; type: functional, cell-based
Description: SANGER: Inhibition of human K5 cell growth in a cell viability assay.

[7] = tested on: RXF 393; type: functional, cell-based;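 also: growth inhibition of human RXF 393 cells, read out with a cell viability assay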
Description: SANGER: Inhibition of human RXF393 cell growth in a cell viability assay.

[8] = tested on: L-363; type: functional, cell-based
Description: SANGER: Inhibition of human L-363 cell growth in a cell viability assay.

[9] = tested on: MHH-PREB-1; type: functional, cell-based;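 also: cell viability assay measuring inhibition of proliferation of human MHH-PREB-1 cells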
Description: SANGER: Inhibition of human MHH-PREB-1 cell growth in a cell viability assay.

[10] = tested on: D-502MG; type: functional, cell-based
Description: SANGER: Inhibition of human D-502MG cell growth in a cell viability assay.

[11] = tested on: SHP77; type: functional, cell-based, SHP-77;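 also: growth inhibition of human SHP-77 cells measured by a cell viability assay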
Description: SANGER: Inhibition of human SHP-77 cell growth in a cell viability assay.

[12] = tested on: SNU1; type: functional, cell-based;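 also: growth inhibition of human NCI-SNU-1 cells, measured with a cell viability assay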
Description: SANGER: Inhibition of human NCI-SNU-1 cell growth in a cell viability assay.

[13] = tested on: Calu-6; type: functional, cell-based;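 also: growth of human Calu-6 cells, read out by a cell viability assay, IC50 marking inhibition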
Description: SANGER: Inhibition of human Calu-6 cell growth in a cell viability assay.

[14] = tested on: D283 Med; type: functional, cell-based
Description: SANGER: Inhibition of human D-283MED cell growth in a cell viability assay.

[15] = tested on: CP66-MEL; type: functional, cell-based;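 also: growth inhibition of CP66-MEL cells determined in a cell viability assay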
Description: SANGER: Inhibition of human CP66-MEL cell growth in a cell viability assay.

[16] = tested on: UACC-257; type: functional, cell-based
Description: SANGER: Inhibition of human UACC-257 cell growth in a cell viability assay.

[17] = tested on: IST-MES1; type: functional, cell-based;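 also: growth inhibition of IST-MES1 cells, measured with a cell viability assay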
Description: SANGER: Inhibition of human IST-MES1 cell growth in a cell viability assay.

[18] = tested on: SK-N-FI; type: functional, cell-based;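 also: cell viability assay measuring growth inhibition of human SK-N-FI cells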
Description: SANGER: Inhibition of human SK-N-FI cell growth in a cell viability assay.

[19] = tested on: GI-ME-N; type: functional, cell-based;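 also: growth inhibition of human GI-ME-N cells, read out with a cell viability assay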
Description: SANGER: Inhibition of human GI-ME-N cell growth in a cell viability assay.

[20] = tested on: SBC-1; type: functional, cell-based;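 also: cell viability assay measuring growth inhibition of the SBC-1 cell line, IC50 being the concentration that halves growth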
Description: SANGER: Inhibition of human SBC-1 cell growth in a cell viability assay.

[21] = tested on: LC-2-ad; type: functional, cell-based;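 also: growth inhibition of human LC-2-ad cells, read out with a cell viability assay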
Description: SANGER: Inhibition of human LC-2-ad cell growth in a cell viability assay.

[22] = tested on: KMOE-2; type: functional, cell-based;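 also: growth inhibition of human KMOE-2 cells, read out with a cell viability assay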
Description: SANGER: Inhibition of human KMOE-2 cell growth in a cell viability assay.

[23] = tested on: KALS-1; type: functional, cell-based;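 also: growth inhibition of KALS-1 cells, determined with a cell viability assay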
Description: SANGER: Inhibition of human KALS-1 cell growth in a cell viability assay.

[24] = tested on: NTERA-2-cl-D1; type: functional, cell-based;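 also: inhibition of cell growth, measured with a cell viability assay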
Description: SANGER: Inhibition of human NTERA-S-cl-D1 cell growth in a cell viability assay.

[25] = tested on: Lu-65; type: functional, cell-based;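 also: growth inhibition of Lu-65 cancer cells, read out by a cell viability assay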
Description: SANGER: Inhibition of human LU-65 cell growth in a cell viability assay.

[26] = tested on: GT3TKB; type: functional, cell-based;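 also: growth inhibition of the cell line, read out with a cell viability assay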
Description: SANGER: Inhibition of human GT3TKB cell growth in a cell viability assay.

[27] = tested on: EW-1; type: functional, cell-based;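 also: growth inhibition of the human EW-1 cell line, read out by a cell viability assay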
Description: SANGER: Inhibition of human EW-1 cell growth in a cell viability assay.

[28] = tested on: LAN-6; type: functional, cell-based;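 also: growth inhibition of LAN-6 cells, determined with a cell viability assay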
Description: SANGER: Inhibition of human LAN-6 cell growth in a cell viability assay.

[29] = tested on: J-RT3-T3-5; type: functional, cell-based;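 also: cell viability assay measuring growth inhibition of human J-RT3-T3-5 cells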
Description: SANGER: Inhibition of human J-RT3-T3-5 cell growth in a cell viability assay.

[30] = tested on: JVM-2; type: functional, cell-based;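 also: growth inhibition of JVM-2 cells determined by a cell viability assay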
Description: SANGER: Inhibition of human JVM-2 cell growth in a cell viability assay.

[31] = tested on: SK-PN-DW; type: functional, cell-based;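 also: growth inhibition measured with a viability assay on these cells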
Description: SANGER: Inhibition of human SK-PN-DW cell growth in a cell viability assay.

[32] = tested on: NMC-G1; type: functional, cell-based;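 also: growth inhibition of the NMC-G1 cell line, measured with a cell viability read-out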
Description: SANGER: Inhibition of human NMC-G1 cell growth in a cell viability assay.

[33] = tested on: LU-134-A; type: functional, cell-based
Description: SANGER: Inhibition of human LU-134-A cell growth in a cell viability assay.

[34] = tested on: QIMR-WIL; type: functional, cell-based;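 also: growth inhibition of QIMR-WIL cells, read out with a cell viability assay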
Description: SANGER: Inhibition of human QIMR-WIL cell growth in a cell viability assay.

[35] = tested on: COR-L88; type: functional, cell-based;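 also: growth inhibition of COR-L88 cells, read out with a cell viability assay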
Description: SANGER: Inhibition of human COR-L88 cell growth in a cell viability assay.

[36] = tested on: IA-LM; type: functional, cell-based;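 also: cell viability assay measuring growth inhibition of human IA-LM cells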
Description: SANGER: Inhibition of human IA-LM cell growth in a cell viability assay.

[37] = tested on: LB2518-MEL; type: functional, cell-based;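 also: growth inhibition of human LB2518-MEL cells, measured with a cell viability assay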
Description: SANGER: Inhibition of human LB2518-MEL cell growth in a cell viability assay.

[38] = tested on: A704; type: functional, cell-based;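 also: growth inhibition of human A704 cells, read out with a cell viability assay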
Description: SANGER: Inhibition of human A704 cell growth in a cell viability assay.

[39] = tested on: KARPAS-45; type: functional, cell-based;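 also: inhibition of cell line growth, read out through a viability assay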
Description: SANGER: Inhibition of human KARPAS-45 cell growth in a cell viability assay.

[40] = tested on: SW 962; type: functional, cell-based;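 also: growth inhibition of human SW962 cells, read out by a cell viability assay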
Description: SANGER: Inhibition of human SW962 cell growth in a cell viability assay.

[41] = tested on: HuTu80; type: functional, cell-based, HUTU-80;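 also: growth inhibition of HuTu80 human cells, determined with a cell viability readout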
Description: SANGER: Inhibition of human HUTU-80 cell growth in a cell viability assay.

[42] = tested on: OVCAR-4; type: functional, cell-based;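 also: growth inhibition of human OVCAR-4 cells, measured with a cell viability assay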
Description: SANGER: Inhibition of human OVCAR-4 cell growth in a cell viability assay.

[43] = tested on: ES5; type: functional, cell-based;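 also: growth inhibition of human ES5 cells, read out by a cell viability assay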
Description: SANGER: Inhibition of human ES5 cell growth in a cell viability assay.

[44] = tested on: A3-KAW; type: functional, cell-based;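 also: growth inhibition of human A3-KAW cells, read out with a cell viability assay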
Description: SANGER: Inhibition of human A3-KAW cell growth in a cell viability assay.

[45] = tested on: OCUB-M; type: functional, cell-based;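 also: growth inhibition of the cancer cell line, read out through a cell viability assay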
Description: SANGER: Inhibition of human OCUB-M cell growth in a cell viability assay.

[46] = tested on: GAK; type: functional, cell-based;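 also: cell growth inhibition read out by a cell viability assay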
Description: SANGER: Inhibition of human GAK cell growth in a cell viability assay.

[47] = tested on: ES8; type: functional, cell-based;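 also: growth inhibition of human ES8 cells, read out with a cell viability assay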
Description: SANGER: Inhibition of human ES8 cell growth in a cell viability assay.

[48] = tested on: DOHH-2; type: functional, cell-based;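 also: growth inhibition of human DOHH-2 cells, read out with a cell viability assay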
Description: SANGER: Inhibition of human DOHH-2 cell growth in a cell viability assay.

[49] = tested on: HT-144; type: functional, cell-based
Description: SANGER: Inhibition of human HT-144 cell growth in a cell viability assay.

[50] = tested on: MEG-01; type: functional, cell-based;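 also: growth inhibition of MEG-01 cells, read out by a cell viability assay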
Description: SANGER: Inhibition of human MEG-01 cell growth in a cell viability assay.

[51] = tested on: NCI-H1770; type: functional, cell-based;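 also: growth inhibition of NCI-H1770 cells determined with a viability readout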
Description: SANGER: Inhibition of human NCI-H1770 cell growth in a cell viability assay.

[52] = tested on: A4-Fuk; type: functional, cell-based;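 also: growth inhibition of A4-Fuk cells, read out by a cell viability assay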
Description: SANGER: Inhibition of human A4-Fuk cell growth in a cell viability assay.

[53] = tested on: LOX IMVI; type: functional, cell-based
Description: SANGER: Inhibition of human LOXIMVI cell growth in a cell viability assay.

[54] = tested on: JAR; type: functional, cell-based;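 also: growth inhibition of human JAR cells determined with a cell viability assay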
Description: SANGER: Inhibition of human JAR cell growth in a cell viability assay.

[55] = tested on: KARPAS-299; type: functional, cell-based
Description: SANGER: Inhibition of human KARPAS-299 cell growth in a cell viability assay.

[56] = tested on: MZ7-mel; type: functional, cell-based;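 also: growth inhibition of human MZ7-mel cells, measured by a cell viability assay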
Description: SANGER: Inhibition of human MZ7-mel cell growth in a cell viability assay.

[57] = tested on: HL-60; type: functional, cell-based;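 also: growth inhibition of human HL-60 cells, read out with a cell viability assay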
Description: SANGER: Inhibition of human HL-60 cell growth in a cell viability assay.

[58] = tested on: DEL; type: functional, cell-based;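 also: growth inhibition of the human DEL cell line, read out with a cell viability assay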
Description: SANGER: Inhibition of human DEL cell growth in a cell viability assay.

[59] = tested on: MLMA; type: functional, cell-based
Description: SANGER: Inhibition of human MLMA cell growth in a cell viability assay.

[60] = tested on: TE-10; type: functional, cell-based
Description: SANGER: Inhibition of human TE-10 cell growth in a cell viability assay.

[61] = tested on: HH; type: functional, cell-based
Description: SANGER: Inhibition of human HH cell growth in a cell viability assay.

[62] = tested on: CW-2; type: functional, cell-based
Description: SANGER: Inhibition of human CW-2 cell growth in a cell viability assay.

[63] = tested on: NCI-H1581; type: functional, cell-based
Description: SANGER: Inhibition of human NCI-H1581 cell growth in a cell viability assay.

[64] = tested on: TE-11; type: functional, cell-based
Description: SANGER: Inhibition of human TE-11 cell growth in a cell viability assay.

[65] = tested on: DB; type: functional, cell-based
Description: SANGER: Inhibition of human DB cell growth in a cell viability assay.

[66] = tested on: ES3; type: functional, cell-based
Description: SANGER: Inhibition of human ES3 cell growth in a cell viability assay.

CCNc1cc(N[C@H]2CC[C@@H](O)CC2)nc(Nc2ccc3c(ccn3Cc3ccccc3)c2)n1
IC50 [1]: > 5120 nM
IC50 [2]: > 5120 nM
IC50 [3]: > 5120 nM
IC50 [4]: > 5120 nM
IC50 [5]: > 5120 nM
IC50 [6]: > 5120 nM
IC50 [7]: > 5120 nM
IC50 [8]: > 5120 nM
IC50 [9]: > 5120 nM
IC50 [10]: > 5120 nM
IC50 [11]: > 5120 nM
IC50 [12]: > 5120 nM
IC50 [13]: > 5120 nM
IC50 [14]: > 5120 nM
IC50 [15]: > 5120 nM
IC50 [16]: > 5120 nM
IC50 [17]: > 5120 nM
IC50 [18]: > 5120 nM
IC50 [19]: > 5120 nM
IC50 [20]: > 5120 nM
IC50 [21]: 702 nM
IC50 [22]: > 5120 nM
IC50 [23]: > 5120 nM
IC50 [24]: > 5120 nM
IC50 [25]: > 5120 nM
IC50 [26]: > 5120 nM
IC50 [27]: > 5120 nM
IC50 [28]: > 5120 nM
IC50 [29]: > 5120 nM
IC50 [30]: > 5120 nM
IC50 [31]: > 5120 nM
IC50 [32]: > 5120 nM
IC50 [33]: > 5120 nM
IC50 [34]: > 5120 nM
IC50 [35]: > 5120 nM
IC50 [36]: > 5120 nM
IC50 [37]: > 5120 nM
IC50 [38]: > 5120 nM
IC50 [39]: > 5120 nM
IC50 [40]: > 5120 nM
IC50 [41]: > 5120 nM
IC50 [42]: > 5120 nM
IC50 [43]: > 5120 nM
IC50 [44]: 1910 nM
IC50 [45]: > 5120 nM
IC50 [46]: > 5120 nM
IC50 [47]: > 5120 nM
IC50 [48]: 3460 nM
IC50 [49]: > 5120 nM
IC50 [50]: > 5120 nM
IC50 [51]: 5080 nM
IC50 [52]: > 5120 nM
IC50 [53]: > 5120 nM
IC50 [54]: > 5120 nM
IC50 [55]: > 5120 nM
IC50 [56]: > 5120 nM
IC50 [57]: > 5120 nM
IC50 [58]: > 5120 nM
IC50 [59]: > 5120 nM
IC50 [60]: 4390 nM
IC50 [61]: > 5120 nM
IC50 [62]: > 5120 nM
IC50 [63]: > 5120 nM
IC50 [64]: > 5120 nM
IC50 [65]: > 5120 nM
IC50 [66]: > 5120 nM

O=c1[nH]c2ccccc2n1C1CCN(Cc2ccc(-c3nc4cc5[nH]cnc5cc4nc3-c3ccccc3)cc2)CC1
IC50 [1]: > 2560 nM
IC50 [2]: > 2560 nM
IC50 [3]: > 2560 nM
IC50 [4]: > 2560 nM
IC50 [5]: > 2560 nM
IC50 [6]: > 2560 nM
IC50 [7]: > 2560 nM
IC50 [8]: > 2560 nM
IC50 [9]: > 2560 nM
IC50 [10]: > 2560 nM
IC50 [11]: > 2560 nM
IC50 [12]: > 2560 nM
IC50 [13]: > 2560 nM
IC50 [14]: > 2560 nM
IC50 [15]: > 2560 nM
IC50 [16]: > 2560 nM
IC50 [17]: > 2560 nM
IC50 [18]: > 2560 nM
IC50 [19]: > 2560 nM
IC50 [20]: > 2560 nM
IC50 [21]: > 2560 nM
IC50 [22]: > 2560 nM
IC50 [23]: > 2560 nM
IC50 [24]: > 2560 nM
IC50 [25]: > 2560 nM
IC50 [26]: > 2560 nM
IC50 [27]: > 2560 nM
IC50 [28]: > 2560 nM
IC50 [29]: > 2560 nM
IC50 [30]: > 2560 nM
IC50 [31]: > 2560 nM
IC50 [32]: > 2560 nM
IC50 [33]: > 2560 nM
IC50 [34]: > 2560 nM
IC50 [35]: > 2560 nM
IC50 [36]: > 2560 nM
IC50 [37]: > 2560 nM
IC50 [38]: > 2560 nM
IC50 [39]: > 2560 nM
IC50 [40]: > 2560 nM
IC50 [41]: > 2560 nM
IC50 [42]: > 2560 nM
IC50 [43]: > 2560 nM
IC50 [44]: > 2560 nM
IC50 [45]: > 2560 nM
IC50 [46]: > 2560 nM
IC50 [47]: > 2560 nM
IC50 [48]: > 2560 nM
IC50 [49]: > 2560 nM
IC50 [50]: > 2560 nM
IC50 [51]: > 2560 nM
IC50 [52]: 1860 nM
IC50 [53]: > 2560 nM
IC50 [54]: > 2560 nM
IC50 [55]: > 2560 nM
IC50 [56]: > 2560 nM
IC50 [57]: > 2560 nM
IC50 [58]: > 2560 nM
IC50 [59]: > 2560 nM
IC50 [60]: > 2560 nM
IC50 [61]: > 2560 nM
IC50 [62]: > 2560 nM
IC50 [63]: > 2560 nM
IC50 [64]: > 2560 nM
IC50 [65]: > 2560 nM
IC50 [66]: > 2560 nM
